Experimental data as given in the supplement of paper PMC10307832.

Columns and labels:
Experiment in all cases: relative viability (nuclei count vs DMSO), 5 days (fraction); higher = more cells survive
AT9283 + Lapatinib = compound: O=C(Nc1c[nH]nc1-c1nc2ccc(CN3CCOCC3)cc2[nH]1)NC1CC1 [AT9283] + CS(=O)(=O)CCNCc1ccc(-c2ccc3ncnc(Nc4ccc(OCc5cccc(F)c5)c(Cl)c4)c3c2)o1 [Lapatinib] (partner 2 µM)
Method in brief: (§1)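 Relative viability is defined as nuclei in treated wells over nuclei in vehicle wells. Duplicate plates were run and medians reported. Lung cancer cell lines in 1536-well plates were dosed by pin tool one day after seeding, with one drug or with a fixed anchor-drug dose plus five library-drug doses (not always all listed) in √10 steps, and nuclei were counted after 5 days.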

Erlotinib + AZD7762 = compound: C#Cc1cccc(Nc2ncnc3cc(OCCOC)c(OCCOC)cc23)c1 [Erlotinib] + NC(=O)Nc1cc(-c2cccc(F)c2)sc1C(=O)N[C@H]1CCCNC1 [AZD7762] (partner 0.2 µM)
Method in brief: as §1

AT9283 + Palbociclib = compound: O=C(Nc1c[nH]nc1-c1nc2ccc(CN3CCOCC3)cc2[nH]1)NC1CC1 [AT9283] + CC(=O)c1c(C)c2cnc(Nc3ccc(N4CCNCC4)cn3)nc2n(C2CCCC2)c1=O [Palbociclib] (partner 0.5 µM)
Method in brief: as §1

Erlotinib + Foretinib = compound: C#Cc1cccc(Nc2ncnc3cc(OCCOC)c(OCCOC)cc23)c1 [Erlotinib] + COc1cc2c(Oc3ccc(NC(=O)C4(C(=O)Nc5ccc(F)cc5)CC4)cc3F)ccnc2cc1OCCCN1CCOCC1 [Foretinib] (partner 0.25 µM)
Method in brief: as §1

AT9283 + AZD7762 = compound: O=C(Nc1c[nH]nc1-c1nc2ccc(CN3CCOCC3)cc2[nH]1)NC1CC1 [AT9283] + NC(=O)Nc1cc(-c2cccc(F)c2)sc1C(=O)N[C@H]1CCCNC1 [AZD7762] (partner 0.2 µM)
Method in brief: as §1

Cell Line	relative viability (AT9283 + Lapatinib; first compound 0.003 µM)	relative viability (AT9283 + Lapatinib; first compound 0.03 µM)	relative viability (AT9283 + Lapatinib; first compound 0.09487 µM)	relative viability (AT9283 + Lapatinib; first compound 0.3 µM)	relative viability (Erlotinib + AZD7762; first compound 0.02 µM)	relative viability (Erlotinib + AZD7762; first compound 0.2 µM)	relative viability (Erlotinib + AZD7762; first compound 0.6325 µM)	relative viability (Erlotinib + AZD7762; first compound 2 µM)	relative viability (AT9283 + Palbociclib; first compound 0.003 µM)	relative viability (AT9283 + Palbociclib; first compound 0.03 µM)	relative viability (AT9283 + Palbociclib; first compound 0.09487 µM)	relative viability (AT9283 + Palbociclib; first compound 0.3 µM)	relative viability (Erlotinib + Foretinib; first compound 0.02 µM)	relative viability (Erlotinib + Foretinib; first compound 0.2 µM)	relative viability (Erlotinib + Foretinib; first compound 0.6325 µM)	relative viability (Erlotinib + Foretinib; first compound 2 µM)	relative viability (AT9283 + AZD7762; first compound 0.003 µM)	relative viability (AT9283 + AZD7762; first compound 0.03 µM)	relative viability (AT9283 + AZD7762; first compound 0.09487 µM)	relative viability (AT9283 + AZD7762; first compound 0.3 µM)
HARA	0.767	0.504	0.0806	0.0666	0.385	0.383	0.333	0.259	0.265	0.23	0.135	0.141	0.929	0.602	0.636	0.401	0.315	0.232	0.0942	0.158
HCC-15	0.745	0.37	0.159	0.142	1.34	1.25	1.31	1.07	0.65	0.681	0.187	0.164	0.996	1.01	1.15	0.934	1.26	1.19	0.926	0.255
HCC-78	0.562	0.587	0.224	0.196	0.5	0.55	0.524	0.369	0.473	0.476	0.396	0.347	0.477	0.42	0.362	0.322	0.593	0.44	0.353	0.234
HCC-366	1.01	0.0702	0.0449	0.0374	0.346	0.258	0.191	0.0996	0.373	0.309	0.157	0.101	0.867	0.936	0.976	0.941	0.209	0.485	0.0684	0.0719
HCC-827	0.195	0.216	0.191	0.164	0.137	0.153	0.116	0.123	0.478	0.428	0.272	0.174	0.263	0.158	0.154	0.135	0.234	0.169	0.145	0.153
HOP-62	1.06	0.984	0.47	0.176	0.702	0.638	0.541		0.468	0.405	0.188	0.197	1.22	1.08	1.15	0.89	0.561	0.143	0.161	0.199
LC-2-ad	0.938	0.0948	0.0976	0.0947	0.843	0.508	0.514	0.389	0.458	0.415	0.29	0.229	0.876	0.658	0.665	0.528	0.848	0.794	0.398	0.227
LCLC-97TM1	0.746	0.15	0.129	0.126	0.291	0.309	0.356	0.196	0.199	0.201	0.106	0.0962	0.894	0.89	0.963	0.791	0.305	0.102	0.0858	0.0762
LK-2	0.788	0.26	0.198	0.181	0.376	0.366	0.438	0.268	0.527	0.145	0.133	0.115	1.24	0.718	1.46	1.23	0.344	0.109	0.0946	0.0986
LOU-NH91	0.688	0.646	0.566	0.419	0.682	0.692	0.769	0.684	0.552	0.515	0.418	0.439	0.519	0.524	0.585		0.735	0.669	0.479	0.444
LU99A	0.846	0.357	0.188	0.207	0.414	0.414	0.295	0.418	0.358	0.226	0.14	0.139	0.861	0.833	0.829	0.678	0.457	0.137	0.139	0.148
LXF-289	0.901	0.691	0.163	0.135	1.13	1.07	1.05	1.03	0.608	0.647	0.254	0.152	0.924	0.937		0.874	1.11	0.782	0.141	0.096
NCI-H23	0.968	0.395	0.225	0.207	0.291	0.177	0.198	0.219	0.496	0.454	0.417	0.243	0.909		1.24	0.631	0.265	0.295	0.179	0.128
